Experimental findings from patent publication US10202360B2 (CELGENE QUANTICEL RESEARCH, INC., priority 2016, dated 2019) are described below.

pIC50: −log10 of the molar value. Bounds are passed on as bounds.

CREBBP, sequence (Q92793 1081-1197): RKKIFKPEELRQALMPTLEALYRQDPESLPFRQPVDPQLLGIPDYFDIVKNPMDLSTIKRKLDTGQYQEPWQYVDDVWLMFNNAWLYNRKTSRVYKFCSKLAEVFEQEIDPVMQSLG

For this assay, the target named is CREBBP (Homo sapiens (Human), UniProt Q92793). As to the kind of experiment: In vitro enzyme inhibition assay - CREBBP inhibition (AlphaScreen, biotinylated H4-tetraacetyl peptide). It counts as binding. The following applies: Table 28; AlphaScreen, H4-tetraacetyl peptide. In a few lines:
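Displacement of 20 nM biotinylated tetraacetyl-H4 peptide from 50 nM E. coli-expressed His-CREBBP, measured by AlphaScreen after bead equilibration for 2 h.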
For the compound `CCCCS(=O)(=O)Nc1cc(-c2cc(F)c(=O)n(C)c2)nc(Oc2c(C)cccc2C)n1` [Example 86, N-(2-(2,6-dimethylphenoxy)-6-(5-fluoro-1-methyl-6-oxo-1,6-dihydropyridin-3-yl)pyrimidin-4-yl)butane-1-sulfonamide], the pIC50 (in general, the IC50 on a negative log10 scale, so that one unit is a factor of ten) is more than 6.30. Compound `CCCCS(=O)(=O)Nc1cc(-c2cc(C)c(=O)n(C)c2)nc(Oc2c(C)nn(C)c2C)n1` [Example 88, N-(6-(1,5-dimethyl-6-oxo-1,6-dihydropyridin-3-yl)-2-((1,3,5-trimethyl-1H-pyrazol-4-yl)oxy)pyrimidin-4-yl)butane-1-sulfonamide] gave a pIC50 of more than 6.30. The value for `CCCCS(=O)(=O)Nc1cc(-c2cn(C)c(=O)cc2C)nc(Oc2c(C)cccc2C)n1` [Example 89, N-(6-(1,4-dimethyl-6-oxo-1,6-dihydropyridin-3-yl)-2-(2,6-dimethylphenoxy)pyrimidin-4-yl)butane-1-sulfonamide] was more than 6.30; that for `Cc1cc(-c2cc(NS(=O)(=O)C(C)C)cc(Oc3ccc(F)cc3F)n2)cn(C)c1=O` [Example 90, N-(6-(2,4-difluorophenoxy)-1′,5′-dimethyl-6′-oxo-1′,6′-dihydro-[2,3′-bipyridin]-4-yl)propane-2-sulfonamide] was more than 6.30; that for `Cc1cc(-c2cc(NS(=O)(=O)C(C)C)nc(Nc3ccc(F)cc3F)n2)cn(C)c1=O` [Example 91, N-(2-((2,4-difluorophenyl)amino)-6-(1,5-dimethyl-6-oxo-1,6-dihydropyridin-3-yl)pyrimidin-4-yl)propane-2-sulfonamide] was more than 6.30. In turn, `CCCS(=O)(=O)Nc1cc(-c2cc(C)c(=O)n(C)c2)cc(Oc2c(C)cccc2C)n1` [Example 92, N-(6′-(2,6-dimethylphenoxy)-1,5-dimethyl-6-oxo-1,6-dihydro-[3,4′-bipyridin]-2′-yl)propane-1-sulfonamide] gave a pIC50 of more than 6.30. The value for `Cc1cc(-c2cc(NS(=O)(=O)C(C)C)nc(Cc3ccc(F)cc3F)n2)cn(C)c1=O` [Example 93, Propane-2-sulfonic acid [2-(2,4-difluoro-benzyl)-6-(1,5-dimethyl-6-oxo-1,6-dihydro-pyridin-3-yl)-pyrimidin-4-yl]-amide] was 5.30 to 6.30; that for `CCS(=O)(=O)Nc1cc(-c2cc(C)c(=O)n(C)c2)nc(Cc2ccc(F)cc2F)n1` [Example 94, Ethanesulfonic acid [2-(2,4-difluoro-benzyl)-6-(1,5-dimethyl-6-oxo-1,6-dihydro-pyridin-3-yl)-pyrimidin-4-yl]-amide] was more than 6.30.

Consider `Cc1cc(-c2cc(CS(=O)(=O)C(C)C)nc(Oc3ccc(F)cc3F)n2)cn(C)c1=O` [Example 95, 5-[2-(2,4-Difluoro-phenoxy)-6-(propane-2-sulfonylmethyl)-pyrimidin-4-yl]-1,3-dimethyl-1H-pyridin-2-one], for which the negative logarithm of the IC50 (pIC50) was more than 6.30. Turning to `CCS(=O)(=O)Cc1cc(-c2cc(C)c(=O)n(C)c2)nc(Oc2ccc(F)cc2F)n1` [Example 96, 5-[2-(2,4-Difluoro-phenoxy)-6-ethanesulfonylmethyl-pyrimidin-4-yl]-1,3-dimethyl-1H-pyridin-2-one], the negative logarithm of the IC50 (pIC50) is more than 6.30. The value for `CCCCS(=O)(=O)Nc1cc(-c2cn(C)c(=O)c3ccccc23)nc(Oc2c(C)cccc2C)n1` [Example 97, Butane-1-sulfonic acid [2-(2,6-dimethyl-phenoxy)-6-(2-methyl-1-oxo-1,2-dihydro-isoquinolin-4-yl)-pyrimidin-4-yl]-amide] was 5.30 to 6.30; that for `CCCCS(=O)(=O)Nc1cc(-c2cc(C)c(=O)n(C)c2)nc(Oc2c(C)cc(F)cc2Cl)n1` [Example 98, Butane-1-sulfonic acid [2-(2-chloro-4-fluoro-6-methyl-phenoxy)-6-(1,5-dimethyl-6-oxo-1,6-dihydro-pyridin-3-yl)-pyrimidin-4-yl]-amide] was more than 6.30; that for `CCCS(=O)(=O)Nc1cc(-c2cc(C)c(=O)n(C)c2)nc(Oc2c(C)cc(F)cc2Cl)n1` [Example 99, Propane-1-sulfonic acid [2-(2-chloro-4-fluoro-6-methyl-phenoxy)-6-(1,5-dimethyl-6-oxo-1,6-dihydro-pyridin-3-yl)-pyrimidin-4-yl]-amide] was more than 6.30. The value for `Cc1cc(F)cc(Cl)c1Oc1nc(NS(=O)(=O)C(C)C)cc(-c2cc(C)c(=O)n(C)c2)n1` [Example 100, Propane-2-sulfonic acid [2-(2-chloro-4-fluoro-6-methyl-phenoxy)-6-(1,5-dimethyl-6-oxo-1,6-dihydro-pyridin-3-yl)-pyrimidin-4-yl]-amide] was more than 6.30. The value for `CCCS(=O)(=O)Nc1cc(-c2cc(C)c(=O)n(C)c2)nc(Oc2c(C)cccc2Cl)n1` [Example 101, Propane-1-sulfonic acid [2-(2-chloro-6-methyl-phenoxy)-6-(1,5-dimethyl-6-oxo-1,6-dihydro-pyridin-3-yl)-pyrimidin-4-yl]-amide] was more than 6.30; that for `CCCCS(=O)(=O)Nc1cc(-c2ccc(=O)n(C)c2)nc(Oc2c(C)cccc2Cl)n1` [Example 102, Butane-1-sulfonic acid [2-(2-chloro-6-methyl-phenoxy)-6-(1-methyl-6-oxo-1,6-dihydro-pyridin-3-yl)-pyrimidin-4-yl]-amide] was more than 6.30. In turn, `CCCS(=O)(=O)Nc1cc(-c2ccc(=O)n(C)c2)nc(Oc2c(C)cccc2Cl)n1` [Example 103, Propane-1-sulfonic acid [2-(2-chloro-6-methyl-phenoxy)-6-(1-methyl-6-oxo-1,6-dihydro-pyridin-3-yl)-pyrimidin-4-yl]-amide] had a pIC50 of more than 6.30. `Cc1cccc(Cl)c1Oc1nc(NS(=O)(=O)C(C)C)cc(-c2ccc(=O)n(C)c2)n1` [Example 104, Propane-2-sulfonic acid [2-(2-chloro-6-methyl-phenoxy)-6-(1-methyl-6-oxo-1,6-dihydro-pyridin-3-yl)-pyrimidin-4-yl]-amide] had a pIC50 of more than 6.30. As to `COc1cc(-c2cc(NS(=O)(=O)C(C)C)nc(Oc3c(C)cccc3C)n2)cn(C)c1=O` [Example 105, N-(2-(2,6-dimethylphenoxy)-6-(5-methoxy-1-methyl-6-oxo-1,6-dihydropyridin-3-yl)pyrimidin-4-yl)propane-2-sulfonamide], the pIC50 is more than 6.30. The value for `CCCCS(=O)(=O)Nc1cc(-c2cc(OC)c(=O)n(C)c2)nc(Oc2c(C)cccc2C)n1` [Example 106, N-(2-(2,6-dimethylphenoxy)-6-(5-methoxy-1-methyl-6-oxo-1,6-dihydropyridin-3-yl)pyrimidin-4-yl)butane-1-sulfonamide] was more than 6.30. Consider `CCCS(=O)(=O)Nc1cc(Oc2c(C)cccc2Cl)nc(-c2cc(C)c(=O)n(C)c2)n1` [Example 107, Propane-1-sulfonic acid [6-(2-chloro-6-methyl-phenoxy)-2-(1,5-dimethyl-6-oxo-1,6-dihydro-pyridin-3-yl)-pyrimidin-4-yl]-amide], for which the pIC50 was more than 6.30. `CCCCS(=O)(=O)Nc1cc(-c2ccc(=O)n(C)c2)nc(Oc2c(C)cccc2C#N)n1` [Example 108, Butane-1-sulfonic acid [2-(2-cyano-6-methyl-phenoxy)-6-(1-methyl-6-oxo-1,6-dihydro-pyridin-3-yl)-pyrimidin-4-yl]-amide] had a negative logarithm of the IC50 (pIC50) of more than 6.30.
